These results are taken from ChEMBL document CHEMBL5291721, “A preclinical secondary pharmacology resource illuminates target-adverse drug reaction associations of marketed drugs” (Nat Commun, 2023).

In general, AC50 refers to the concentration at which the activity in the assay is half-maximal. A high value points to weaker potency.

Experiment [1] deals with T1, Alpha-2C adrenergic receptor (Homo sapiens, UniProt P18825).
T1 sequence (P18825 whole entry): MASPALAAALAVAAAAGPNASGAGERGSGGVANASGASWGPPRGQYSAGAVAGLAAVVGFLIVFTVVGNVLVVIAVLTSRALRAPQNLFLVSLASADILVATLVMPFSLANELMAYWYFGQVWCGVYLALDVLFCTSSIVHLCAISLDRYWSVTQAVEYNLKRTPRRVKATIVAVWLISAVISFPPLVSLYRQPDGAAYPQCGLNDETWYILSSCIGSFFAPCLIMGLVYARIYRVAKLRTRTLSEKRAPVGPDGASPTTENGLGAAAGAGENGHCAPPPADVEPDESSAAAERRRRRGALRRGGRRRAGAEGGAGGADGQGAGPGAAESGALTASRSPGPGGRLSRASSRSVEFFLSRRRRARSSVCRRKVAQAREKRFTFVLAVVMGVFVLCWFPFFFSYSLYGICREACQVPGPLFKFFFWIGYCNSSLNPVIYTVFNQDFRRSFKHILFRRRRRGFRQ
In kind it is functional.

In experiment [2] the target is T2, Type-1 angiotensin II receptor (Homo sapiens, UniProt P30556).
T2 sequence (P30556 whole entry): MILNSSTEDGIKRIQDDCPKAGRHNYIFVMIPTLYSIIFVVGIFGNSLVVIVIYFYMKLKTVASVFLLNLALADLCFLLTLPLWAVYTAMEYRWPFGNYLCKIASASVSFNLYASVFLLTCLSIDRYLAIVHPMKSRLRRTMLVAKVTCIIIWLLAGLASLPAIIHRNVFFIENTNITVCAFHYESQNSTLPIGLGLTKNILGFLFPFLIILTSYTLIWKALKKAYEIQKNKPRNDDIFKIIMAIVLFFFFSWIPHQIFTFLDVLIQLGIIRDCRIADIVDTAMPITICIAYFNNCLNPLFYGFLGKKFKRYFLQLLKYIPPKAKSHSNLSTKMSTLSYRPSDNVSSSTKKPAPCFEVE

The target in experiment [3] is T3, Muscarinic acetylcholine receptor M2 (Homo sapiens, UniProt P08172).
T3 sequence (P08172 whole entry): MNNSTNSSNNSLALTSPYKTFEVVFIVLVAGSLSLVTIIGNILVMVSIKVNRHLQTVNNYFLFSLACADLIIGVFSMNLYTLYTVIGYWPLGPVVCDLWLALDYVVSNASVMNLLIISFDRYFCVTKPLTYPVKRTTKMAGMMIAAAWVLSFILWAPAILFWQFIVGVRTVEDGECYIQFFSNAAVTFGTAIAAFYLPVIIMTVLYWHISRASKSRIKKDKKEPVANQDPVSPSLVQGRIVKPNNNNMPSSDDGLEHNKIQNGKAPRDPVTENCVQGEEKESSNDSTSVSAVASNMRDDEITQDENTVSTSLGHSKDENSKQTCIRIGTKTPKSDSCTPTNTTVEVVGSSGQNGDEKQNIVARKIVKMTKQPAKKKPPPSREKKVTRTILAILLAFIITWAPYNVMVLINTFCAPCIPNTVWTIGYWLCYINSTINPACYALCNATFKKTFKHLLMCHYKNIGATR
In kind it is functional, cell-based.

In experiment [4] the target is T4, 5-hydroxytryptamine receptor 1A (Homo sapiens, UniProt P08908).
T4 sequence (P08908 whole entry): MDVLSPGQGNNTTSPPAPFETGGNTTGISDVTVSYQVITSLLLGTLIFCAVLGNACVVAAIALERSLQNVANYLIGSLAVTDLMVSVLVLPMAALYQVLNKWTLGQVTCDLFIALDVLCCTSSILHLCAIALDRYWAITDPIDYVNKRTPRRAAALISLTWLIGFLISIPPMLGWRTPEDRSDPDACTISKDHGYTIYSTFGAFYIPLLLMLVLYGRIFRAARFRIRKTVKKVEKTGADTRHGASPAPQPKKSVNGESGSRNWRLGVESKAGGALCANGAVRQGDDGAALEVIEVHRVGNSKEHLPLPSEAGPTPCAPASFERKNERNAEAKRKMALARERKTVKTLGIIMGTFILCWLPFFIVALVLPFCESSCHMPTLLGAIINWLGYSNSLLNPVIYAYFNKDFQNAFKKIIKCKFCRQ
In kind it is functional, cell-based.

Experiment [5] concerns the target 5-hydroxytryptamine receptor 2B (Homo sapiens, UniProt P41595). In kind it is functional, cell-based.
A further experiment has as its target T5, Progesterone receptor (Homo sapiens, UniProt P06401).
T5 sequence (P06401 whole entry): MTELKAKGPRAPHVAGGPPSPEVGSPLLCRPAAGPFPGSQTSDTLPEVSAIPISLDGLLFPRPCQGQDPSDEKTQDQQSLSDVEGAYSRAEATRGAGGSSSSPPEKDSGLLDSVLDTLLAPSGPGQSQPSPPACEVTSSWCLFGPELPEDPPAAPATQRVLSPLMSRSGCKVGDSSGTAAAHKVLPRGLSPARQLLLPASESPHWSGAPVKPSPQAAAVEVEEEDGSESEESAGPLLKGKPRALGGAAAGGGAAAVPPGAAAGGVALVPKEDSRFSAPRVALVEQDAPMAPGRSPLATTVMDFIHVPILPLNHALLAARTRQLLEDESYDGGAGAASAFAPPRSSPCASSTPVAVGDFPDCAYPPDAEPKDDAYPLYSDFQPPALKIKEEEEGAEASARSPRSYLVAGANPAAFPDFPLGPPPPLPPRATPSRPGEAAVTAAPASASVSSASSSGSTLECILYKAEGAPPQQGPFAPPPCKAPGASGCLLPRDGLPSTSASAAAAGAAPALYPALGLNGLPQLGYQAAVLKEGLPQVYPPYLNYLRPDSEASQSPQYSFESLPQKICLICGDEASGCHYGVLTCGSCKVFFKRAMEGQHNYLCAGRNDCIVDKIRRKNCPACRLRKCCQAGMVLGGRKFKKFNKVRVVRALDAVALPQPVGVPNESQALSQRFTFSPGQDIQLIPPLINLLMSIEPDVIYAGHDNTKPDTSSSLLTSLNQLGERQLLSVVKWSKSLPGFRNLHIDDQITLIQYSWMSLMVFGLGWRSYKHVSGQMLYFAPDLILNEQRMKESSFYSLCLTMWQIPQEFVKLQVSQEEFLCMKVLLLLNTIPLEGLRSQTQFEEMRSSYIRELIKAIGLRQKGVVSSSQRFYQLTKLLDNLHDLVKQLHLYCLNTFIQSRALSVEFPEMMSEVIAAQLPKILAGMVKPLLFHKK
In kind it is functional.
Also: assay procedure not described here.

Chain of 5-hydroxytryptamine receptor 2B (P41595 whole entry): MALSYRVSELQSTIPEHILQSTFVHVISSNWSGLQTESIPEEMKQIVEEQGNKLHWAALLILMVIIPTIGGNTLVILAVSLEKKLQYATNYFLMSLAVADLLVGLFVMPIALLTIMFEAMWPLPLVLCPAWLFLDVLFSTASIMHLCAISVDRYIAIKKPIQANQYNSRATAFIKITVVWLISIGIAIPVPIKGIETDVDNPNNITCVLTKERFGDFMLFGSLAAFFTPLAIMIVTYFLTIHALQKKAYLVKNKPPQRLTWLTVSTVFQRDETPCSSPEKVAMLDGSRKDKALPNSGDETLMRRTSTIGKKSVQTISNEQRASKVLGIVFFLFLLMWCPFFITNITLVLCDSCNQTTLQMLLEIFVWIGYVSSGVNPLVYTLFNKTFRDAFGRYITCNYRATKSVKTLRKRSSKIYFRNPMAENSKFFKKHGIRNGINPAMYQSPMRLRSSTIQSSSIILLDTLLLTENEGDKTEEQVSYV

`CC(=N)N1CC[C@H](SC2=C(C(=O)O)N3C(=O)[C@H]([C@@H](C)O)[C@H]3C2)C1`: the AC50 (in experiment [1]; in experiment [2]; in experiment [3]; in experiment [4]; in experiment [5]; on Progesterone receptor) was greater than 300 µM each time.

Turning to `CC(/C=C1\SC(=S)N(CC(=O)O)C1=O)=C\c1ccccc1`, the AC50 was 8.2 µM in experiment [1]; 1.5 µM in experiment [2]; greater than 30 µM in experiment [3]; greater than 30 µM in experiment [4]; greater than 30 µM in experiment [5]; greater than 30 µM at Progesterone receptor.

Consider `O=C1CN2Cc3c(ccc(Cl)c3Cl)N=C2N1` [ANAGRELIDE], for which the AC50 in experiment [1] is greater than 10 µM; in experiment [2], greater than 30 µM; in experiment [3], greater than 10 µM; in experiment [4] it was greater than 30 µM; in experiment [5], greater than 10 µM.

On to `CNCC[C@@H](Oc1ccccc1C)c1ccccc1` [ATOMOXETINE], for which the AC50 (in experiment [1]; in experiment [2]; in experiment [5]; at Progesterone receptor) was greater than 30 µM throughout.

Consider `CCc1oc2ccccc2c1C(=O)c1cc(Br)c(O)c(Br)c1` [BENZBROMARONE], for which the AC50 in experiment [1] is 26 µM; in experiment [2], 16 µM; in experiment [4], greater than 30 µM; in experiment [5] it was greater than 30 µM; on Progesterone receptor it was greater than 30 µM.

`CO/N=C(\C(=O)N[C@@H]1C(=O)N2C(C(=O)O)=C(COC(N)=O)CS[C@H]12)c1ccco1` [CEFUROXIME]: the AC50 in experiment [1], in experiment [2], in experiment [3], in experiment [4] and in experiment [5] was greater than 30 µM in each case.

In the case of `[H]/N=C(\N/C(=N/[H])NCCCCCCNC(=N)NC(=N)Nc1ccc(Cl)cc1)Nc1ccc(Cl)cc1` [CHLORHEXIDINE], the AC50 in experiment [1] is 1.8 µM; in experiment [2], greater than 10 µM; in experiment [4] it was greater than 30 µM; in experiment [5], greater than 30 µM; on Progesterone receptor it was greater than 30 µM.

As to `Clc1cccc(Cl)c1N=C1NCCN1` [CLONIDINE], the AC50 was greater than 30 µM in experiment [2], greater than 10 µM in experiment [3], greater than 10 µM in experiment [4] and greater than 10 µM in experiment [5].

In the case of `CN1C[C@H](C(=O)N[C@]2(C)O[C@@]3(O)[C@@H]4CCCN4C(=O)[C@H](Cc4ccccc4)N3C2=O)C[C@@H]2c3cccc4[nH]cc(c34)C[C@H]21` [DIHYDROERGOTAMINE], the AC50 in experiment [3] is greater than 10 µM; in experiment [4], 0.14 µM; in experiment [5], 2.77 µM.

Regarding `CNCC[C@H](Oc1cccc2ccccc12)c1cccs1` [DULOXETINE], the AC50 was 1.4 µM in experiment [1]; greater than 30 µM in experiment [2]; greater than 10 µM in experiment [3]; 8.9 µM in experiment [4]; greater than 10 µM in experiment [5].

Consider `CCC(=O)O[C@@H](O[P@](=O)(CCCCc1ccccc1)CC(=O)N1C[C@H](C2CCCCC2)C[C@H]1C(=O)O)C(C)C` [FOSINOPRIL], for which the AC50 in experiment [1], in experiment [3], in experiment [4] and in experiment [5] was greater than 30 µM each time.

Turning to `Cc1cnc(NC(=O)C2=C(O)c3ccccc3S(=O)(=O)N2C)s1` [MELOXICAM], the AC50 was greater than 10 µM in experiment [1]; greater than 30 µM in experiment [2]; greater than 10 µM in experiment [3]; greater than 10 µM in experiment [4]; greater than 10 µM in experiment [5].

`CNCCC=C1c2ccccc2CCc2ccccc21` [NORTRIPTYLINE]: the AC50 in experiment [2] was greater than 30 µM; in experiment [3], 1.9 µM; in experiment [4] it was greater than 30 µM; in experiment [5], greater than 30 µM; at Progesterone receptor, greater than 30 µM.

As for `COc1ccnc(C[S+]([O-])c2nc3ccc(OC(F)F)cc3[nH]2)c1OC` (stereo not drawn) [PANTOPRAZOLE], the AC50 in experiment [1] is greater than 10 µM; in experiment [2] it was greater than 30 µM; in experiment [3], greater than 10 µM; in experiment [4], greater than 10 µM; in experiment [5], greater than 10 µM.

Consider `CNC(=O)c1cc(Oc2ccc(NC(=O)Nc3ccc(Cl)c(C(F)(F)F)c3)c(F)c2)ccn1` [REGORAFENIB], for which the AC50 (in experiment [1]; in experiment [3]; on Progesterone receptor) was greater than 30 µM each time.

`CC(C)N(CCCCOCC(=O)NS(C)(=O)=O)c1cnc(-c2ccccc2)c(-c2ccccc2)n1` [SELEXIPAG]: the AC50 (in experiment [1]; in experiment [3]; in experiment [4]; in experiment [5]; at Progesterone receptor) was greater than 30 µM throughout.

Turning to `CC(=O)S[C@@H]1CC2=CC(=O)CC[C@]2(C)[C@H]2CC[C@@]3(C)[C@@H](CC[C@@]34CCC(=O)O4)[C@H]12` [SPIRONOLACTONE], the AC50 is greater than 30 µM in experiment [1]; greater than 30 µM in experiment [2]; 26 µM in experiment [3]; greater than 30 µM in experiment [4]; greater than 30 µM in experiment [5].

Regarding `CCCCNc1ccc(C(=O)OCCN(C)C)cc1` [TETRACAINE], the AC50 in experiment [1] is greater than 10 µM; in experiment [2] it was greater than 30 µM; in experiment [3], greater than 10 µM; in experiment [4], greater than 10 µM; in experiment [5], greater than 10 µM.

Take `Cn1c(=O)c2[nH]cnc2n(C)c1=O` [THEOPHYLLINE]: the AC50 in experiment [1] is greater than 10 µM; in experiment [2], greater than 30 µM; in experiment [3], greater than 10 µM; in experiment [4] it was greater than 10 µM; in experiment [5] it was greater than 10 µM.

Regarding `CN1CCN(CCCN2c3ccccc3Sc3ccc(S(=O)(=O)N(C)C)cc32)CC1` [THIOPROPERAZINE], the AC50 is 2.6 µM in experiment [1], 12 µM in experiment [3] and greater than 30 µM in experiment [5].

For `CC1(C)O[C@@H]2[C@@H](CO[C@@]3(COS(N)(=O)=O)OC(C)(C)O[C@@H]23)O1` [TOPIRAMATE], the AC50 in experiment [1] is greater than 10 µM; in experiment [2], greater than 30 µM; in experiment [3], greater than 10 µM; in experiment [4] it was greater than 10 µM; in experiment [5] it was greater than 10 µM.
